# Data published in publication PMC11378297, “Discovery and Profiling of New Multimodal Phenylglycinamide Derivatives as Potent Antiseizure and Antinociceptive Drug Candidates” (ACS Chemical Neuroscience, 2024).
# Tests used:
# CYP3A4 = biological target: T1, CYP3A4 (Homo sapiens, UniProt P08684); test: CYP3A4 P450-Glo assay; format: in vitro ADME; settings: 10 μM
# T1 construct: purchased Promega (Madison, WI, USA)
# Description: The inhibition effect of enantiomers on CYP2C9 was also determined, but only at the highest concentrations (Figure 10C). In summary, the potential for DDIs of the tested enantiomers in comparison to the reference CYP inhibitors was estimated as very low.
# Figure 10 Influence of (R)-31, (R)-32, and (R)-33 on: CYP3A4 activity (A) and the reference inhibitor ketoconazole (KE), CYP2D6 activity (B) and the reference inhibitor quinidine (QD), CYP2C9 activity (C) and the reference inhibitor sulfaphenazole (SE). The results are presented as means + SD. Statistical significance was evaluated by one-way ANOVA, followed by Bonferroni’s multiple comparison post hoc test (Graph Pad Prism 8.0.1 software) *p < 0.05, **p < 0.01, ***p < 0.001, ****p < 0.0001.
# All assays and protocols used for the evaluation of compounds ADME-Tox parameters were described previously.[35]−[38],[95]−[98] […] The vitality of the cells was assessed using the CellTiter 96 AQueous Non-Radioactive Cell Proliferation Assay (Promega, Madison, WI, USA), following a 48 h incubation period with either the reference medication, doxorubicin (DOX), or serial dilutions of the investigated compounds. Using an EnSpire PerkinElmer microplate reader (Waltham, MA, USA), the luminescent signal and absorbances (measured at 490 nm) in DDIs and safety assays were determined. […]
# HepG2 cell line = test: hepatotoxicity, HepG2 cell viability; format: cell-based, human; settings: 25 μM, 72 h of incubation (Figure 11)
# Description: The hepatotoxicity potential was assessed with the HepG2 cell line and the reference cytostatic drug doxorubicin.
# The results are presented as means + SD. Statistical significance was evaluated by one-way ANOVA, followed by Bonferroni’s multiple comparison post hoc test (Graph Pad Prism 8.0.1 software, San Diego, CA, USA): *p < 0.05, ***p < 0.001, ****p < 0.0001 vs negative control (DMSO 1% in growth media).
# [1] = test system: mature-BDNF (mBDNF) expression; test: mBDNF expression in hippocampus and cortex of PTZ-kindled mice (Western blot); format: in vivo, mouse; settings: 80 mg/kg repeated, p < 0.01 vs PTZ kindling control
# From the text: However, there are also few reports showing opposite findings.[51],[52] […] No changes in the expression of the nerve growth factor (NGF) were observed (Figure 6D–F).
# Figure 6 Changes in mature-BDNF (mBDNF) expression in hippocampus (A) and cortex (C) and in proNGF expression in hippocampus (D) and cortex (F) with representative immunoblots, together with total protein amount visualized by the stain-free technique (B,E). Data are shown as means of relative expressions + SD (n = 8). Statistical significance was evaluated by one-way ANOVA followed by Tukey’s post hoc test: **p < 0.01 (GraphPad Prism 8.4.3).
# The Western Blot method was used to assess the expression of proNGF and mBDNF in the mouse brain and hippocampal tissues. Using a bead homogenizer (Bead Ruptor Elite, Omni International, USA), the cortical and hippocampal regions of the mouse brain were weighted and homogenized at a ratio of 9 μL/mg in 2% SDS supplemented with a cocktail of protease (Thermo Scientific, Walthman, MA, USA) and phosphatase inhibitors (Sigma-Aldrich, St. Louis, MO, USA). Samples were then centrifuged at 10,000g for 10 min at 4 °C after being denatured for 10 min at 95 °C. […] One-way ANOVA with Tukey’s post hoc test was utilized to examine changes in the relative expression of the proteins that were evaluated.
# T1 sequence (P08684 whole entry): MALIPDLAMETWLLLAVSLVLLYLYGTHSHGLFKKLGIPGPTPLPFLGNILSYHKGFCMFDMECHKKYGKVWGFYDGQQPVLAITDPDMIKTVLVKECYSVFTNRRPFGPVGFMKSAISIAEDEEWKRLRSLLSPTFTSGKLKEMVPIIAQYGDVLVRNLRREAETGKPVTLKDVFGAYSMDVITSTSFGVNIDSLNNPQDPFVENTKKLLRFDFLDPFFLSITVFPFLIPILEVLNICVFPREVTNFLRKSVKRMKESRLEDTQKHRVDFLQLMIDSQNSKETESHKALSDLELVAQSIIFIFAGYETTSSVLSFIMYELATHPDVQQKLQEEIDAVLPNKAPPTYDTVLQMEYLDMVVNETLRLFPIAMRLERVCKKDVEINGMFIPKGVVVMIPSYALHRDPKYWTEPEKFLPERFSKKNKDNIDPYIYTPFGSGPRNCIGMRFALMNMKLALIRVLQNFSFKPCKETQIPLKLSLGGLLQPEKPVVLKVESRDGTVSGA
smiles,measurement,setting,value
"CC(=O)N[C@@H](C(=O)N1CCN(c2cccc(C(F)(F)F)c2)CC1)c1ccccc1 [(R)-31, (R)-N-(2-Oxo-1-phenyl-2-(4-(3-(trifluoromethyl)phenyl)piperazin-1-yl)ethyl)acetamide]",effect on CYP3A4 activity,CYP3A4,significantly inhibited
"CC(=O)N[C@@H](C(=O)N1CCN(c2cccc(SC(F)(F)F)c2)CC1)c1ccccc1 [(R)-33, (R)-N-(2-Oxo-1-phenyl-2-(4-(3-((trifluoromethyl)thio)phenyl)piperazin-1-yl)ethyl)acetamide]",HepG2 cell viability,HepG2 cell line,"reduced slightly, but statistically significant cell viability"
"CC(=O)N[C@@H](C(=O)N1CCN(c2cccc(OC(F)(F)F)c2)CC1)c1ccccc1 [(R)-32, (R)-N-(2-Oxo-1-phenyl-2-(4-(3-(trifluoromethoxy)phenyl)piperazin-1-yl)ethyl)acetamide]",mBDNF protein expression in the hippocampus (PTZ kindling-induced overexpression),[1],reversed the overexpression
